Assay results: patent US10898469B2, “Imidazolylamide derivative” (Sumitomo Dainippon Pharma Co., Ltd., priority 2016, dated 2021)
Read-outs that look alike come from different tables or passages of the source.

How the values were obtained:
Assay type in all cases: cell-based, human
FaDu cells = assay: Inhibition test for sphere-forming ability of cancer cells (Test Example 1), FaDu; conditions: for IC50: concentration for 50% inhibition of cell proliferation, read-out: IC50 (μmol/L) FaDu (Sphere IC50 value); for (100%-inhibition rate of cell proliferation) at 1 μmol/L, FaDu: value with %
Excerpt: (§1) The reliable methods established for measuring the self-renewal ability of cells which is one of the CSC's properties include a method for measuring the sphere-forming ability of cancer cells in non-adherent condition in the absence of serum (Cancer Res 65, 5506-5511 (2005)). Human colorectal cancer-derived HCT-116 cells, human colon-adenocarcinoma-derived HT-29 cells, and human pharyngeal cancer-derived FaDu cells were available from American Type Culture Collection (ATCC). HCT-116 cells and HT-29 cells were cultured at 37° C. under 5% CO2 using the McCoy's 5a medium containing 10% fetal bovine serum (FBS) and 1% penicillin/streptomycin, and FaDu cells were cultured at 37° C. under 5% CO2 using the MEM medium containing 10% FBS, 1% non-essential amino acid, 1% sodium pyruvate, and 1% penicillin/streptomycin. HCT-116 cells, HT-29 cells, and FaDu cells were seeded in a 384 Well Black Clear Bottom Ultra-Low Attachment Microplate (Corning Cat. No. 3827) in an amount of 350-800 cells/well using the DMEM/F12 medium containing 2% B27 supplement (GIBCO), 20 ng/mL epidermal growth factor (EGF) (peprotech), 10 ng/mL basic fibroblast growth factor (bFGF) (peprotech), 5 μg/mL insulin (Sigma), and 1% penicillin/streptomycin. Each test compound was added into each well to adjust the final concentration of DMSO to 0.1%, and the cells were cultured for 4 days. The number of viable cells in each well was then measured with CellTiter-Glo® Luminescent Cell Viability Assay (Promega) to calculate the concentration of each test compound for 50% inhibition of cell proliferation (Sphere IC50 value; μmol/L).
(§2) The experiment of Test Example 1 was performed for each compound of each Example. The concentration of each test compound for 50% inhibition of cell proliferation (Sphere IC50 value; μmol/L) is shown in the following Table.

HCT-116 cells = assay: Inhibition test for sphere-forming ability of cancer cells (Test Example 1), HCT-116; conditions: for IC50: concentration for 50% inhibition of cell proliferation, read-out: IC50 (μmol/L) HCT-116 (Sphere IC50 value); for inhibitory effect on the sphere-forming ability of cancer cells: Test Example 1, summary in words, cell line not given (HCT-116, HT-29, FaDu tested)
Excerpt: as §1, §2

HT-29 cells = assay: Inhibition test for sphere-forming ability of cancer cells (Test Example 1), HT-29; conditions: for IC50: concentration for 50% inhibition of cell proliferation, read-out: IC50 (μmol/L) HT-29 (Sphere IC50 value); for (100%-inhibition rate of cell proliferation) at 1 μmol/L, HT-29: value with %
Excerpt: as §1, §2

[1] = HCT-116 cells, 1 μmol/L, value with %
[2] = Homo sapiens, read-out: (100%-inhibition rate of cell proliferation) at 1 μmol/L, 1 μmol/L, value with %

Compound | IC50 (FaDu cells) | IC50 (HCT-116 cells; HCT-116 cells) | IC50 (HT-29 cells) | also measured
O=C(Nc1cn(Cc2cccc(Cl)c2)cn1)c1ccc(-n2cccn2)nc1 [Example 196] | 0.89 µmol/L | 0.76 µmol/L | 3.78 µmol/L | 
O=C(Nc1cn(Cc2cccc(OC(F)(F)F)c2)cn1)/C(F)=C/c1cccnc1 [Example 111] |  |  |  | IC50 (FaDu cells; Homo sapiens): 0.99 µmol/L; IC50 (HCT-116 cells; Homo sapiens, HCT-116 cells): 9.31 µmol/L; IC50 (HT-29 cells; Homo sapiens): 0.83 µmol/L
O=C(/C=C/c1ccc(F)cc1)Nc1cn(Cc2cccc(Cl)c2)cn1 [Example 62] | 0.56 µmol/L | 0.74 µmol/L | 0.09 µmol/L | 
O=C(/C=C/c1ccc(F)cc1Br)Nc1cn(Cc2cccc(Cl)c2)cn1 [Example 78] | 8.9 µmol/L | 7.31 µmol/L | 6.34 µmol/L | 
O=C(Nc1cn(Cc2cccc(Cl)c2)cn1)c1ccc(OCc2ccccc2)cc1 [Example 197] |  |  |  | (100%-inhibition rate of cell proliferation) at 1 μmol/L, FaDu (FaDu cells): 28.9%; (100%-inhibition rate of cell proliferation) at 1 μmol/L, HCT-116 (HCT-116 cells; [1]): 44.3%; (100%-inhibition rate of cell proliferation) at 1 μmol/L, HT-29 (HT-29 cells): 39.0%
COc1ccc(C(=O)Nc2cn(Cc3ccc(C(F)(F)F)o3)cn2)cc1OC [Example 171] |  |  |  | (100%-inhibition rate of cell proliferation) at 1 μmol/L, FaDu (FaDu cells): 29.6%; (100%-inhibition rate of cell proliferation) at 1 μmol/L, HCT-116 (HCT-116 cells; [1]): 36.4%; (100%-inhibition rate of cell proliferation) at 1 μmol/L, HT-29 (HT-29 cells): 33.8%
O=C(Nc1cn(Cc2cccc(C(F)(F)F)c2)cn1)c1ccc(OCC(F)(F)F)nc1 [Example 214] | 3.52 µmol/L | 5.31 µmol/L | 0.9 µmol/L | 
COc1ccc(C(=O)Nc2cn(Cc3ccc(C(C)C)cc3)cn2)cc1OC [Example 168] |  |  |  | (100%-inhibition rate of cell proliferation) at 1 μmol/L, FaDu (FaDu cells): 32.3%; (100%-inhibition rate of cell proliferation) at 1 μmol/L, HCT-116 (HCT-116 cells; [1]): 32.1%; (100%-inhibition rate of cell proliferation) at 1 μmol/L, HT-29 (HT-29 cells): 8.6%
COC(=O)c1ccc(/C=C/C(=O)Nc2cn(Cc3cccc(Cl)c3)cn2)cn1 [Example 25, Methyl (E)-5-(3-((1-(3-chlorobenzyl)-1H-imidazol-4-yl)amino)-3-oxoprop-1-en-1-yl)picolinate] |  |  |  | IC50 (FaDu cells; Homo sapiens): 0.89 µmol/L; IC50 (HCT-116 cells; Homo sapiens, HCT-116 cells): > 10 µmol/L; IC50 (HT-29 cells; Homo sapiens): 2.61 µmol/L
Nc1ccc(C(=O)Nc2cn(Cc3cccc(Cl)c3)cn2)cn1 [Example 224] | 5.44 µmol/L | 6.71 µmol/L | 5.51 µmol/L | 
O=C(/C=C/c1ccccc1C(F)(F)F)Nc1cn(Cc2cccc(Cl)c2)cn1 [Example 55] | 3.77 µmol/L | 0.96 µmol/L | 1.2 µmol/L | 
COc1ccc(OC)c(/C=C/C(=O)Nc2cn(Cc3cccc(Cl)c3)cn2)c1 [Example 53] | 0.87 µmol/L | 0.87 µmol/L | 0.84 µmol/L | 
O=C(/C=C/c1cccc(Oc2ccccc2)c1)Nc1cn(Cc2cccc(C(F)(F)F)c2)cn1 [Example 104] |  |  |  | IC50 (FaDu cells; Homo sapiens): 2.7 µmol/L; IC50 (HCT-116 cells; Homo sapiens, HCT-116 cells): 2.09 µmol/L; IC50 (HT-29 cells; Homo sapiens): 0.79 µmol/L
COCCOc1ccc(C(=O)Nc2cn(Cc3cccc(Cl)c3)cn2)cn1 [Example 244, N-[1-(3-Chlorobenzyl)-1H-imidazol-4-yl]-6-(2-methoxyethoxy)nicotinamide] |  |  |  | viability at 1 µM (FaDu cells; [2]): 36.7%; viability at 1 µM (HCT-116 cells; Homo sapiens, read-out: (100%-inhibition rate of cell proliferation) at 1 μmol/L, HCT-116 cells, 1 μmol/L, value with %): 46.7%; viability at 1 µM (HT-29 cells; [2]): 27%
O=C(/C=C/c1cccc(Br)c1)Nc1cn(Cc2cccc(Cl)c2)cn1 [Example 56] | 4.5 µmol/L | 5.74 µmol/L | 6.62 µmol/L | 
Cc1ccc(/C=C/C(=O)Nc2cn(Cc3cccc(Cl)c3)cn2)cc1 [Example 49] | 0.08 µmol/L | 0.1 µmol/L | 0.06 µmol/L | inhibitory effect on the sphere-forming ability of cancer cells (HCT-116 cells): particularly potent inhibitory effect
Cc1ccccc1/C=C/C(=O)Nc1cn(Cc2cccc(Cl)c2)cn1 [Example 72] | 0.29 µmol/L | 4.42 µmol/L | 0.09 µmol/L | 

Compound | IC50 (FaDu cells) | IC50 (HCT-116 cells; HCT-116 cells) | IC50 (HT-29 cells) | also measured
O=C(/C=C/c1ccc(F)cc1F)Nc1cn(Cc2cccc(Cl)c2)cn1 [Example 69] | 0.54 µmol/L | 0.82 µmol/L | 0.38 µmol/L | 
O=C(/C=C/c1cccc(F)c1)Nc1cn(Cc2cccc(Cl)c2)cn1 [Example 57] | 4.36 µmol/L | 0.94 µmol/L | 3.3 µmol/L | 
Cc1cccc(/C=C/C(=O)Nc2cn(Cc3cccc(OC(F)(F)F)c3)cn2)c1 [Example 110] |  |  |  | IC50 (FaDu cells; Homo sapiens): 1.92 µmol/L; IC50 (HCT-116 cells; Homo sapiens, HCT-116 cells): 7.21 µmol/L; IC50 (HT-29 cells; Homo sapiens): 5.67 µmol/L
Nc1ccc(/C=C/C(=O)Nc2cn(Cc3cccc(Cl)c3)cn2)cn1 [Example 19, (E)-3-(6-Aminopyridin-3-yl)-N-(1-(3-chlorobenzyl)-1H-imidazol-4-yl)acrylamide] |  |  |  | IC50 (FaDu cells; Homo sapiens): 0.66 µmol/L; IC50 (HCT-116 cells; Homo sapiens, HCT-116 cells): 0.89 µmol/L; IC50 (HT-29 cells; Homo sapiens): 0.6 µmol/L
COc1cc(/C=C/C(=O)Nc2cn(Cc3cccc(Cl)c3)cn2)cc(OC)c1O [Example 67] | 0.79 µmol/L | 7.34 µmol/L | 8.37 µmol/L | 
COc1ccccc1/C=C/C(=O)Nc1cn(Cc2cccc(Cl)c2)cn1 [Example 77] | < 0.01 µmol/L | 0.84 µmol/L | 0.38 µmol/L | inhibitory effect on the sphere-forming ability of cancer cells (HCT-116 cells): particularly potent inhibitory effect
O=C(/C=C/c1cccc(Oc2ccccc2)c1)Nc1cn(Cc2cccc(Cl)c2)cn1 [Example 79] | 0.86 µmol/L | 0.79 µmol/L | 0.7 µmol/L | 
CCOc1ccc(C(=O)Nc2cn(Cc3cccc(OC(F)(F)F)c3)cn2)cn1 [Example 213] | 0.79 µmol/L | 0.81 µmol/L | 0.65 µmol/L | 
COc1ccc(/C=C/C(=O)Nc2cn(Cc3cccc(Cl)c3)cn2)c(OC)c1 [Example 71] | 0.06 µmol/L | 0.23 µmol/L | 0.03 µmol/L | inhibitory effect on the sphere-forming ability of cancer cells (HCT-116 cells): particularly potent inhibitory effect
O=C(/C=C/c1cccc(C(F)(F)F)c1)Nc1cn(Cc2cccc(Cl)c2)cn1 [Example 60] | 8.2 µmol/L | > 10 µmol/L | 9.79 µmol/L | 
CN(C)c1ccc(/C=C/C(=O)Nc2cn(Cc3cccc(Cl)c3)cn2)cc1 [Example 63] | 0.08 µmol/L | 0.53 µmol/L | 0.07 µmol/L | 
CN(C)CCOc1ccc(C(=O)Nc2cn(Cc3cccc(Cl)c3)cn2)cn1 [Example 205] | 6.39 µmol/L | > 10 µmol/L | 2.39 µmol/L | 
Cc1cccc(/C=C/C(=O)Nc2cn(Cc3cccc(C(F)(F)F)c3)cn2)c1 [Example 105] |  |  |  | IC50 (FaDu cells; Homo sapiens): 0.85 µmol/L; IC50 (HCT-116 cells; Homo sapiens, HCT-116 cells): 5.05 µmol/L; IC50 (HT-29 cells; Homo sapiens): 0.94 µmol/L
Cc1ccc(C(=O)Nc2cn(Cc3cccc(Cl)c3)cn2)cn1 [Example 198] |  |  |  | (100%-inhibition rate of cell proliferation) at 1 μmol/L, FaDu (FaDu cells): 64.5%; (100%-inhibition rate of cell proliferation) at 1 μmol/L, HCT-116 (HCT-116 cells; [1]): 55.3%; (100%-inhibition rate of cell proliferation) at 1 μmol/L, HT-29 (HT-29 cells): 99.8%
O=C(/C=C/c1cccc(O)c1)Nc1cn(Cc2cccc(Cl)c2)cn1 [Example 65] | 0.06 µmol/L | 0.95 µmol/L | 2.66 µmol/L | inhibitory effect on the sphere-forming ability of cancer cells (HCT-116 cells): particularly potent inhibitory effect
O=C(/C=C/c1ccoc1)Nc1cn(Cc2cccc(Cl)c2)cn1 [Example 88] | 0.91 µmol/L | 0.88 µmol/L | 0.83 µmol/L | 
CCOc1ccc(C(=O)Nc2cn(Cc3c(F)ccc(C)c3F)cn2)cn1 [Example 221] | 0.89 µmol/L | 0.51 µmol/L | 0.59 µmol/L | 
